Type in all cases: functional
Test [1] relates to Pseudomonas aeruginosa. Description: Antibacterial activity against AmpC hyperproducing Pseudomonas aeruginosa SR24-12 after 20 hrs by agar dilution method.
For the next test, the system named is Streptococcus pneumoniae. Description: Antibacterial activity against penicillin resistant Streptococcus pneumoniae SR-16675 after 20 hrs by agar dilution method. In general terms: In agar dilution the substance is mixed into plates at graded concentrations.
The test system of test [2] is Pseudomonas aeruginosa. Put plainly: Antibacterial activity against Imipenem resistant Pseudomonas aeruginosa SR-6554 after 20 hrs by agar dilution method.
Test [3] has as its system Enterobacter cloacae. Description: Antibacterial activity against AmpC producing Enterobacter cloacae SR-4321 after 20 hrs by agar dilution method.
For test [4], the system named is Haemophilus influenzae. Description: Antibacterial activity against Haemophilus influenzae ATCC 49766 after 20 hrs by agar dilution method. Particulars: ATCC 49766, 20 h.
The test system of test [5] is Escherichia coli. Description: Antibacterial activity against Escherichia coli NIHJJC2 after 20 hrs by agar dilution method.
For test [6], the system named is Haemophilus influenzae. Put plainly: Antibacterial activity against beta-lactamase negative ampicillin resistant Haemophilus influenzae SR-11435 after 20 hrs by agar dilution method.
The test system of a further test is Staphylococcus aureus. Put plainly: Antibacterial activity against […] Staphylococcus aureus SMITH after 20 hrs by agar dilution method.
Test [7] deals with Escherichia coli. Put plainly: Antibacterial activity against Toho 2 (ESBL) producing Escherichia coli SR-21003 after 20 hrs by agar dilution method.
The next test deals with Moraxella catarrhalis. Description: Antibacterial activity against Moraxella catarrhalis ATCC 43617 after 20 hrs by agar dilution method. Particulars: ATCC 43617, 20 h.
Test [8] has as its system Pseudomonas aeruginosa. Description: Antibacterial activity against Pseudomonas aeruginosa SR-5393 after 20 hrs by agar dilution method.
The test system of test [9] is Pseudomonas aeruginosa. Put plainly: Antibacterial activity against Pseudomonas aeruginosa SR24 after 20 hrs by agar dilution method.
The subject of test [10] is Enterobacter cloacae. Put plainly: Antibacterial activity against Enterobacter cloacae ATCC 13047 after 20 hrs by agar dilution method. Particulars: ATCC 13047, 20 h.
Test [11] concerns Pseudomonas aeruginosa. Put plainly: Antibacterial activity against CAZ susceptible Pseudomonas aeruginosa SR24 infected in mouse after 7 days. As to conditions: 168 h.
The subject of test [12] is Pseudomonas aeruginosa. Put plainly: Antibacterial activity against CAZ resistant Pseudomonas aeruginosa SR24-12 infected in mouse after 7 days. As to conditions: 168 h.

In brackets after ≈: the same amount, converted by molar mass.

Here are results for four molecules from ChEMBL document CHEMBL1149714 (2007).

`CNCCCn1ccc2c1ccc[n+]2CC1=C(C(=O)[O-])N2C(=O)[C@@H](NC(=O)/C(=N\OCC(=O)O)c3nc(N)sc3Cl)[C@H]2SC1`: the MIC against Pseudomonas aeruginosa [1] is 8 µg/mL (≈ 12.1 µM); in the test with Streptococcus pneumoniae, 2 µg/mL (≈ 3.02 µM); against Pseudomonas aeruginosa [2], 8 µg/mL (≈ 12.1 µM); in the test on Enterobacter cloacae [3], 8 µg/mL (≈ 12.1 µM); against Haemophilus influenzae [4], 0.032 µg/mL (≈ 0.0483 µM); with Escherichia coli [5] it was 0.25 µg/mL (≈ 0.377 µM). Further, the MIC in the test with Haemophilus influenzae [6] amounted to 0.125 µg/mL (≈ 0.188 µM); against Staphylococcus aureus, 2 µg/mL (≈ 3.02 µM); in the test with Escherichia coli [7], 2 µg/mL (≈ 3.02 µM); in the test on Moraxella catarrhalis, 0.016 µg/mL (≈ 0.0241 µM); in the test with Pseudomonas aeruginosa [8], 2 µg/mL (≈ 3.02 µM); with Pseudomonas aeruginosa [9], 0.5 µg/mL (≈ 0.754 µM). Besides, the MIC against Enterobacter cloacae [10] is 0.25 µg/mL (≈ 0.377 µM).

Regarding `CNCCCn1ccc2c1ccc[n+]2CC1=C(C(=O)[O-])N2C(=O)[C@@H](NC(=O)/C(=N\O[C@H](C)C(=O)O)c3nc(N)sc3Cl)[C@H]2SC1`, the MIC against Pseudomonas aeruginosa [1] was 4 µg/mL (≈ 5.91 µM); in the test on Streptococcus pneumoniae, 4 µg/mL (≈ 5.91 µM); in the test on Pseudomonas aeruginosa [2], 16 µg/mL (≈ 23.6 µM); with Enterobacter cloacae [3], 4 µg/mL (≈ 5.91 µM); in the test on Haemophilus influenzae [4] it was 0.063 µg/mL (≈ 0.093 µM); in the test with Escherichia coli [5], 0.5 µg/mL (≈ 0.738 µM). Also, the MIC in the test with Haemophilus influenzae [6] amounted to 0.25 µg/mL (≈ 0.369 µM); in the test on Staphylococcus aureus, 2 µg/mL (≈ 2.95 µM); against Escherichia coli [7], 4 µg/mL (≈ 5.91 µM); against Moraxella catarrhalis, 0.032 µg/mL (≈ 0.0473 µM); in the test on Pseudomonas aeruginosa [8], 4 µg/mL (≈ 5.91 µM); in the test on Pseudomonas aeruginosa [9], 1 µg/mL (≈ 1.48 µM). Also, in the test on Enterobacter cloacae [10], the MIC was found to be 1 µg/mL (≈ 1.48 µM).

For orientation: ED50 means the midpoint of the dose-response relation. Lower therefore signals greater potency. Regarding `CNCCCn1ccc2c1ccc[n+]2CC1=C(C(=O)[O-])N2C(=O)[C@@H](NC(=O)/C(=N\O[C@@H](C)C(=O)O)c3nc(N)sc3Cl)[C@H]2SC1`, the MIC in the test on Pseudomonas aeruginosa [1] is 4 µg/mL (≈ 5.91 µM); in the test with Streptococcus pneumoniae, 2 µg/mL (≈ 2.95 µM); against Pseudomonas aeruginosa [2], 8 µg/mL (≈ 11.8 µM); against Enterobacter cloacae [3] it was 2 µg/mL (≈ 2.95 µM); in the test on Haemophilus influenzae [4] it was 0.032 µg/mL (≈ 0.0473 µM); in the test on Escherichia coli [5], 0.25 µg/mL (≈ 0.369 µM). Further, the MIC turned out to be 0.063 µg/mL (≈ 0.093 µM) against Haemophilus influenzae [6]; 1 µg/mL (≈ 1.48 µM) against Staphylococcus aureus; 4 µg/mL (≈ 5.91 µM) with Escherichia coli [7]; 0.016 µg/mL (≈ 0.0236 µM) in the test on Moraxella catarrhalis; 2 µg/mL (≈ 2.95 µM) in the test on Pseudomonas aeruginosa [8]; 1 µg/mL (≈ 1.48 µM) against Pseudomonas aeruginosa [9]. This molecule also came in with an MIC with Enterobacter cloacae [10] of 0.5 µg/mL (≈ 0.738 µM). Further, the ED50 in the test on Pseudomonas aeruginosa [11] was 1.4 mg/kg; in the test with Pseudomonas aeruginosa [12], 5.32 mg/kg.

Turning to `CC(C)(O/N=C(\C(=O)N[C@@H]1C(=O)N2C(C(=O)[O-])=C(C[n+]3ccccc3)CS[C@H]12)c1csc(N)n1)C(=O)O` [CEFTAZIDIME], the MIC in the test with Pseudomonas aeruginosa [1] was found to be 64 µg/mL (≈ 117 µM); with Streptococcus pneumoniae, 8 µg/mL (≈ 14.6 µM); against Pseudomonas aeruginosa [2], 32 µg/mL (≈ 58.5 µM); in the test with Enterobacter cloacae [3] it was 64 µg/mL (≈ 117 µM); against Haemophilus influenzae [4] it was 0.063 µg/mL (≈ 0.115 µM); in the test with Escherichia coli [5], 0.25 µg/mL (≈ 0.457 µM). Also, the MIC amounted to 0.125 µg/mL (≈ 0.229 µM) in the test on Haemophilus influenzae [6]; 8 µg/mL (≈ 14.6 µM) in the test on Staphylococcus aureus; 1 µg/mL (≈ 1.83 µM) against Escherichia coli [7]; 0.063 µg/mL (≈ 0.115 µM) in the test on Moraxella catarrhalis; 2 µg/mL (≈ 3.66 µM) in the test with Pseudomonas aeruginosa [8]; 0.5 µg/mL (≈ 0.915 µM) in the test with Pseudomonas aeruginosa [9]. This molecule had an MIC against Enterobacter cloacae [10] of 8 µg/mL (≈ 14.6 µM). Besides, the ED50 with Pseudomonas aeruginosa [11] was found to be 2.83 mg/kg; with Pseudomonas aeruginosa [12], 127 mg/kg.
